Measured values reported in ChEMBL document CHEMBL3044528, “Potential new fungicides: N-acyl-5-methyl-3(2H)-isoxazolone derivatives” (2012).

How the values were obtained:
Format in all cases: functional
[1] = tested on: Rhynchosporium secalis; assay: Fungicidal activity against Rhynchosporium secalis IFO-5290 assessed as mycelial growth inhibition at 25 mg/L after 14 days; settings: IFO-5290, 336 h, read-out: GI
[2] = tested on: Alternaria alternata; assay: Fungicidal activity against Alternaria alternata APS-38 assessed as mycelial growth inhibition at 25 mg/L after 3 days; settings: APS-38, 72 h, read-out: GI
[3] = tested on: Fusarium graminearum; assay: Fungicidal activity against Fusarium graminearum H3 assessed as mycelial growth inhibition at 25 mg/L after 3 days; settings: H3, 72 h, read-out: GI
[4] = tested on: Rhizoctonia solani; assay: Fungicidal activity against Rhizoctonia solani ET0007 assessed as mycelial growth inhibition at 25 mg/L after 1 day; settings: ET0007, 24 h, read-out: GI
[5] = tested on: Gaeumannomyces graminis; assay: Fungicidal activity against Gaeumannomyces graminis MAFF305168 assessed as mycelial growth inhibition at 25 mg/L after 1 day; settings: MAFF305168, 24 h, read-out: GI
[6] = tested on: Pyrenophora graminea; assay: Fungicidal activity against Pyrenophora graminea IFO-7507 assessed as mycelial growth inhibition at 25 mg/L after 3 days; settings: IFO-7507, 72 h, read-out: GI
[7] = tested on: Microdochium nivale; assay: Fungicidal activity against Microdochium nivale IFO-7432 assessed as mycelial growth inhibition at 25 mg/L after 3 days; settings: IFO-7432, 72 h, read-out: GI
[8] = tested on: Cercospora beticola; assay: Fungicidal activity against Cercospora beticola Be-2-6 assessed as mycelial growth inhibition at 25 mg/L after 7 days; settings: Be-2-6, 168 h, read-out: GI
[9] = tested on: Zymoseptoria tritici; assay: Fungicidal activity against Zymoseptoria tritici S3 assessed as mycelial growth inhibition at 25 mg/L after 14 days; settings: S3, 336 h, read-out: GI

| SMILES | inhibition of growth at 25 µg/mL [1] [%] | inhibition of growth at 25 µg/mL [2] [%] | inhibition of growth at 25 µg/mL [3] [%] | inhibition of growth at 25 µg/mL [4] [%] | inhibition of growth at 25 µg/mL [5] [%] | inhibition of growth at 25 µg/mL [6] [%] | inhibition of growth at 25 µg/mL [7] [%] | inhibition of growth at 25 µg/mL [8] [%] | inhibition of growth at 25 µg/mL [9] [%] |
| --- | --- | --- | --- | --- | --- | --- | --- | --- | --- |
| Cc1cc(=O)n(C(=O)/C=C/c2ccsc2)o1 | 100 | 50 | 32 | 100 | 45 | 97 | 69 | 90 | 61 |
| Cc1cc(O)no1 [HYMEXAZOL] | 100 | 74 | 45 | 28 | 56 | 80 | 77 | 88 | 86 |
| Cc1cc(=O)n(C(=O)C#Cc2ccccc2)o1 | 98 | 72 | 23 | 17 | 3 | 73 | 41 | 88 | 83 |
| Cc1cc(=O)n(C(=O)Cc2ccccc2)o1 | 99 | 67 | 32 | 5 | 66 | 71 | 51 | 84 | 83 |
| Cc1cc(=O)n(C(=O)C2(C)C(C)(C)C2(Cl)Cl)o1 (configuration not stated) | 87 | 31 | 20 | 24 | 0 | 79 | 36 | 80 | 50 |
| Cc1cc(=O)n(C(=O)CCl)o1 | 100 | 81 | 28 | 19 | 66 | 89 | 72 | 94 | 70 |
| Cc1cc(=O)n(C(=O)c2c(F)c(F)c(F)c(F)c2F)o1 | 100 | 60 | 22 | 5 | 0 | 87 | 36 | 90 | 56 |
| Cc1cc(=O)n(C(=O)C(C)(C)Oc2ccc(Cl)cc2)o1 | 100 | 53 | 6 | 3 | 29 | 81 | 23 | 74 | 73 |
